Data on 1 compound can be found in paper PMC10451668, “Natural Acetogenins, Chatenaytrienins-1, -2, -3 and -4, Mitochondrial Potential Uncouplers and Autophagy Inducers—Promising Anticancer Agents” (Antioxidants, 2023).

Holding throughout (type): cell-based, human
One data set deals with HL60. The experiment in a line: Cytotoxicity assay (7-AAD viability, flow cytometry). Particulars: Homo sapiens, HL-60, ± standard error of the mean, 95% CI in parenthesis. The source says:
(§1) Cells, including Jurkat E6.1 (human leukemic T cell lymphoblasts, catalogue no. 88042803), K562 (human chronic myelogenous leukemia cells, catalogue no. 89121407), U937 (human histiocytic lymphoma cells, catalogue no. 85011440), HL60 (human promyelocytic leukemia cells, catalog no. 98070106), HEK293 (human embryonic kidney cells with adenovirus, catalog no. 85120602), and human lung fibroblasts Ce (catalogue no. 90011883), were purchased from the European Collection of Authenticated Cell Cultures (UK Health Security Agency) and cultured according to standard protocols using sterile techniques. […] Cells were maintained in RPMI 1640 (Jurkat, K562, U937, and HL60) and DME M (fibroblast and HEK293) (Gibco) supplemented with […] glutamine, 10% FBS (Sigma), and 100 units/mL penicillin-streptomycin (Sigma). All types of cells were grown under an atmosphere of 5% CO2 at 37 °C. The cells were subcultured at 2–3-day intervals. Cells were then seeded in 24-well plates at 5 × 10^4 cells per well and incubated overnight. Jurkat, K562, U937, HL60, HEK293, and fibroblast cells were subcultured at 2-day intervals with a seeding density of 1 × 10^5 cells per well in 24-well plates in RPMI with 10% FBS.
(§2) Viability (live/dead) assessment was performed by staining cells with 7-AAD (7-aminoactinomycin D; Biolegend). After treatment, cells were harvested, washed 1–2 times with phosphate-buffered saline (PBS), and centrifuged at 400× g for 5 min. Cell pellets were resuspended in 200 µL of flow cytometry staining buffer (PBS without Ca^2+ and Mg^2+, 2.5% FBS) and stained with […] of 7-AAD staining solution for 15 min at room temperature in the dark. Samples were assessed using the NovoCyte Penteon Flow Cytometer System (Agilent, 5301 Stevens Creek Blvd., Santa Clara, CA, USA). Detection of 7-AAD emission was collected through a 675/30 nm filter in the FL4 channel.

The subject of another data set is Jurkat. Described as above. Particulars: Homo sapiens, ± standard error of the mean, 95% CI in parenthesis.
Description: as §1, §2

Assay in data set [1]: as above
Particulars: human; Hek293, conditionally normal line; ± standard error of the mean, 95% CI in parenthesis.
Description: as §1, §2

For the next data set, the system named is K562. The description is as above. Particulars: Homo sapiens, ± standard error of the mean, 95% CI in parenthesis.
Description: as §1, §2

The next data set relates to U937. Described as above. Particulars: Homo sapiens, U-937, ± standard error of the mean, 95% CI in parenthesis.
Description: as §1, §2

Assay in data set [2]: as above
Particulars: human; normal fibroblasts; ± standard error of the mean, 95% CI in parenthesis.

Data set [3] deals with Jurkat cells. As to the kind of experiment: Detection of mitodamage: mitochondrial membrane potential and apoptosis (MitoSense Red, annexin V, 7-AAD). Particulars: compound at CC50, 4 h. The source says: The use of reagents MitoSense Red, annexin V, and 7-AAD in the Millipore FlowCellect™ MitoDamage Kit allowed us to gain information on early, mid, and late apoptosis with one simple assay. […] After this time, the cells were dissociated using an accutase solution, stained, and analyzed using the NovoCyte Penteon Flow Cytometer System (Agilent, 5301 Stevens Creek Blvd., Santa Clara, CA, USA), according to the manufacturer’s protocols for the FlowCellect™ MitoDamage Kit and FlowCellect™ Oxidative Stress Characterization Kit (Merck).
Detection of mitochondrial potential dissipation using MitoSense Red, annexin V, and 7-AAD provided a simultaneous measurement of three important parameters of the cell state within the same cell sample: the state of the mitochondrial potential (Δψ), detected by the membrane-penetrating MitoSense Red dye; the expression of phosphatidylserine on the cell surface of apoptotic cells, assessed by the binding of annexin V to externalized phosphatidylserine; and the binding of 7-AAD to DNA in cells in the late stages of apoptosis. Multiparametric evaluation of these indicators of cell viability made it possible to determine the correlation and relationship between oxidation dissipation and phosphorylation with apoptosis.

Data set [4] has as its system Jurkat cells. The experiment in a line: Oxidative stress and early apoptosis (MitoSOX Red and annexin V, MitoStress Kit). Particulars: compound at CC50, 4 h. The source says: Changes in the mitochondrial membrane potential (ΔΨ) in Jurkat cells induced by treatment with the synthesized compounds were detected using MitoSOX Red, a positively charged probe that accumulates rapidly in mitochondria and as such can be used to detect superoxide/ROS production within mitochondria using fluorometry, microscopy, or flow cytometry. Live cells induced a low level of MitoSOX Red fluorescence, while cells with scattered mitochondrial membrane potential caused much higher MitoSOX Red fluorescence. Annexin V is a dye commonly used to detect early signs of apoptosis. […] Thus, using two different dyes, MitoSOX Red and annexin V (CF488A), in the FlowCellect™ MitoStress Kit (FCCH100109), we analyzed the mitochondrial membrane potential dissipation and associated apoptosis in Jurkat cells in response to the synthesized chatenaytrienins.
Therefore, simultaneous detection of mitochondrial superoxide generation (detected by MitoSOX Red membrane-penetrating dye) and expression of phosphatidylserine on the cell surface of apoptotic cells (assessed by binding of annexin V) in the same cell sample provides an accurate evaluation of the ability of the test compound to initiate oxidative stress in cell culture and induce apoptosis.

The term CC50 denotes the concentration at which the toxic effect on the cells reaches its halfway point. Take `CCCCCCCCCC/C=C\CC/C=C\CC/C=C\CCCCCCCCCCC1=C[C@H](C)OC1=O` [compound 1, chatenaytrienin-1]: the CC50 was found to be 150 ± 10 nM with HL60; 90 ± 20 nM in the data set on Jurkat; 530 ± 20 nM in data set [1]; 100 ± 30 nM in the data set on K562; 90 ± 20 nM with U937; 690 ± 40 nM in data set [2]. The “cells in late apoptosis (stained with 7-AAD)” value with Jurkat cells [3] (Jurkat) turned out to be 15.11%. Besides, the “Jurkat tumor cells with the Δψ dissipation phenomenon” value with Jurkat cells [3] (MitoSense Red) was determined as 83.69%. Moreover, the “cells demonstrating oxidative stress along with the marker of early apoptosis, annexin” value in the data set with Jurkat cells [4] (MitoSOX Red and annexin V) was 10.53%. For the same compound, the “cells in early apoptosis” value in the data set on Jurkat cells [4] (annexin V) was 75%.
